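1) Cells in 96-well plates. 2) Compound, 48 h, 5 concentrations. 3) Linear interpolation between surrounding doses. 4) Unreached endpoint = highest concentration. GI50 = concentration required for 50% inhibition of growth. TGI marks complete inhibition of growth.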
Legend:
Assay in all cases: NCI anticancer screen, dose series, 48 h
786-0 renal = tested on: 786-0 renal
A498 renal = tested on: A498 renal
A549 NSCLC = tested on: A549 NSCLC
ACHN renal = tested on: ACHN renal
BT-549 breast = tested on: BT-549 breast
CAKI-1 renal = tested on: CAKI-1 renal
CCRF-CEM leukemia = tested on: CCRF-CEM leukemia
COLO 205 colon = tested on: COLO 205 colon
DU-145 prostate = tested on: DU-145 prostate
EKVX NSCLC = tested on: EKVX NSCLC
HCC-2998 colon = tested on: HCC-2998 colon
HCT-116 colon = tested on: HCT-116 colon
HCT-15 colon = tested on: HCT-15 colon
HL-60(TB) leukemia = tested on: HL-60(TB) leukemia
HOP-62 NSCLC = tested on: HOP-62 NSCLC
HOP-92 NSCLC = tested on: HOP-92 NSCLC
HS 578T breast = tested on: HS 578T breast
HT29 colon = tested on: HT29 colon
IGROV1 ovarian = tested on: IGROV1 ovarian
K-562 leukemia = tested on: K-562 leukemia
KM12 colon = tested on: KM12 colon
LOX IMVI melanoma = tested on: LOX IMVI melanoma
M14 melanoma = tested on: M14 melanoma
MALME-3M melanoma = tested on: MALME-3M melanoma
MCF7 breast = tested on: MCF7 breast
MDA-MB-231 breast = tested on: MDA-MB-231 breast
MDA-MB-435 = tested on: MDA-MB-435
MOLT-4 leukemia = tested on: MOLT-4 leukemia
NCI-H226 lung = tested on: NCI-H226 lung
NCI-H23 lung = tested on: NCI-H23 lung
NCI-H460 lung = tested on: NCI-H460 lung
NCI-H522 lung = tested on: NCI-H522 lung
NCI/ADR-RES ovarian = tested on: NCI/ADR-RES ovarian
OVCAR-3 ovarian = tested on: OVCAR-3 ovarian
OVCAR-4 ovarian = tested on: OVCAR-4 ovarian
OVCAR-5 ovarian = tested on: OVCAR-5 ovarian
OVCAR-8 ovarian = tested on: OVCAR-8 ovarian
PC-3 prostate = tested on: PC-3 prostate
RPMI-8226 leukemia = tested on: RPMI-8226 leukemia
RXF 393 renal = tested on: RXF 393 renal
SF-268 CNS = tested on: SF-268 CNS
SF-295 CNS = tested on: SF-295 CNS
SF-539 CNS = tested on: SF-539 CNS
SK-MEL-2 melanoma = tested on: SK-MEL-2 melanoma
SK-MEL-28 melanoma = tested on: SK-MEL-28 melanoma
SK-MEL-5 melanoma = tested on: SK-MEL-5 melanoma
SK-OV-3 ovarian = tested on: SK-OV-3 ovarian
SN12C renal = tested on: SN12C renal
SNB-19 CNS = tested on: SNB-19 CNS
SNB-75 CNS = tested on: SNB-75 CNS
SR leukemia = tested on: SR leukemia
SW-620 colon = tested on: SW-620 colon
T-47D breast = tested on: T-47D breast
TK-10 renal = tested on: TK-10 renal
U251 CNS = tested on: U251 CNS
UACC-257 melanoma = tested on: UACC-257 melanoma
UACC-62 melanoma = tested on: UACC-62 melanoma
UO-31 renal = tested on: UO-31 renal

Q: What does the source list for `COc1cc(C2CC(c3ccccc3)=NN2C(C)=O)cc(OC)c1OC` (stereo unspecified)?
A: GI50 (786-0 renal): 5.93 µM; TGI (786-0 renal): > 100 µM; GI50 (A498 renal): 4.79 µM; TGI (A498 renal): > 100 µM; GI50 (A549 NSCLC): 6.63 µM; TGI (A549 NSCLC): > 100 µM; GI50 (ACHN renal): 5.88 µM; TGI (ACHN renal): > 100 µM; GI50 (BT-549 breast): 6.37 µM; TGI (BT-549 breast): > 100 µM; GI50 (CAKI-1 renal): 2.45 µM; TGI (CAKI-1 renal): > 100 µM; GI50 (CCRF-CEM leukemia): 3.09 µM; TGI (CCRF-CEM leukemia): > 100 µM; GI50 (COLO 205 colon): 2.92 µM; TGI (COLO 205 colon): > 41 µM; GI50 (DU-145 prostate): 5.26 µM; TGI (DU-145 prostate): 77.3 µM; GI50 (EKVX NSCLC): 6.41 µM; TGI (EKVX NSCLC): > 100 µM; GI50 (HCC-2998 colon): 6.4 µM; TGI (HCC-2998 colon): > 74 µM; GI50 (HCT-116 colon): 2.83 µM; TGI (HCT-116 colon): > 100 µM; GI50 (HCT-15 colon): 2.48 µM; TGI (HCT-15 colon): > 100 µM; GI50 (HL-60(TB) leukemia): 3.26 µM; TGI (HL-60(TB) leukemia): > 31.7 µM; GI50 (HOP-62 NSCLC): 5.59 µM; TGI (HOP-62 NSCLC): > 100 µM; GI50 (HOP-92 NSCLC): 32.9 µM; TGI (HOP-92 NSCLC): > 100 µM; GI50 (HS 578T breast): 2.57 µM; TGI (HS 578T breast): 34.6 µM; GI50 (HT29 colon): 2.57 µM; TGI (HT29 colon): > 100 µM; GI50 (IGROV1 ovarian): 4.66 µM; TGI (IGROV1 ovarian): > 100 µM; GI50 (K-562 leukemia): 2.77 µM; TGI (K-562 leukemia): > 100 µM; GI50 (KM12 colon): 1.42 µM; TGI (KM12 colon): > 100 µM; GI50 (LOX IMVI melanoma): 6.38 µM; TGI (LOX IMVI melanoma): > 100 µM; GI50 (M14 melanoma): 2.47 µM; TGI (M14 melanoma): > 34.2 µM; GI50 (MALME-3M melanoma): 13 µM; TGI (MALME-3M melanoma): > 100 µM; GI50 (MCF7 breast): 2.26 µM; TGI (MCF7 breast): > 100 µM; GI50 (MDA-MB-231 breast): 7.68 µM; TGI (MDA-MB-231 breast): > 100 µM; GI50 (MDA-MB-435): 0.428 µM; TGI (MDA-MB-435): 8.27 µM; GI50 (MOLT-4 leukemia): 5.5 µM; TGI (MOLT-4 leukemia): > 100 µM; GI50 (NCI-H226 lung): 6.8 µM; TGI (NCI-H226 lung): > 100 µM; GI50 (NCI-H23 lung): 5.91 µM; TGI (NCI-H23 lung): > 100 µM; GI50 (NCI-H460 lung): 3.55 µM; TGI (NCI-H460 lung): > 51 µM; GI50 (NCI-H522 lung): 5.53 µM; TGI (NCI-H522 lung): > 100 µM; GI50 (NCI/ADR-RES ovarian): 2.8 µM; TGI (NCI/ADR-RES ovarian): > 26.1 µM; GI50 (OVCAR-3 ovarian): 2.11 µM; TGI (OVCAR-3 ovarian): 6.52 µM; GI50 (OVCAR-4 ovarian): 11.7 µM; TGI (OVCAR-4 ovarian): > 100 µM; GI50 (OVCAR-5 ovarian): 70.7 µM; TGI (OVCAR-5 ovarian): > 100 µM; GI50 (OVCAR-8 ovarian): 7.43 µM; TGI (OVCAR-8 ovarian): > 100 µM; GI50 (PC-3 prostate): 3.97 µM; TGI (PC-3 prostate): > 100 µM; GI50 (RPMI-8226 leukemia): 2.56 µM; TGI (RPMI-8226 leukemia): > 27.7 µM; GI50 (RXF 393 renal): 4.14 µM; TGI (RXF 393 renal): > 48.2 µM; GI50 (SF-268 CNS): 5.37 µM; TGI (SF-268 CNS): > 100 µM; GI50 (SF-295 CNS): 0.576 µM; TGI (SF-295 CNS): 4.15 µM; GI50 (SF-539 CNS): 3.06 µM; TGI (SF-539 CNS): 17.8 µM; GI50 (SK-MEL-2 melanoma): 4.02 µM; TGI (SK-MEL-2 melanoma): > 100 µM; GI50 (SK-MEL-28 melanoma): 6.48 µM; TGI (SK-MEL-28 melanoma): > 100 µM; GI50 (SK-MEL-5 melanoma): 2.87 µM; TGI (SK-MEL-5 melanoma): > 100 µM; GI50 (SK-OV-3 ovarian): 3.91 µM; TGI (SK-OV-3 ovarian): > 100 µM; GI50 (SN12C renal): 5.23 µM; TGI (SN12C renal): > 100 µM; GI50 (SNB-19 CNS): 5.63 µM; TGI (SNB-19 CNS): > 100 µM; GI50 (SNB-75 CNS): 1.74 µM; TGI (SNB-75 CNS): 13.3 µM; GI50 (SR leukemia): 0.996 µM; TGI (SR leukemia): > 100 µM; GI50 (SW-620 colon): 3.04 µM; TGI (SW-620 colon): > 100 µM; GI50 (T-47D breast): 5.33 µM; TGI (T-47D breast): > 100 µM; GI50 (TK-10 renal): > 46.9 µM; TGI (TK-10 renal): > 100 µM; GI50 (U251 CNS): 3.93 µM; TGI (U251 CNS): > 100 µM; GI50 (UACC-257 melanoma): > 100 µM; TGI (UACC-257 melanoma): > 100 µM; GI50 (UACC-62 melanoma): 4.2 µM; TGI (UACC-62 melanoma): > 100 µM; GI50 (UO-31 renal): 7.09 µM; TGI (UO-31 renal): > 100 µM

Reference: PubChem BioAssay (NCI)
